In patent US20250197387A1, “BCL-XL DEGRADERS AND USES THEREOF” (Kymera Therapeutics, Inc., priority 2021, published 2025):

Target: T1, BCL-XL (Homo sapiens, UniProt Q07817)
T1 construct: endogenous in cells; host or cells: MOLT-4
Assay: Bcl-xL ELISA degradation in MOLT-4 cells, 6 h
Type: cell-based
Conditions: for DC50: read-out: Bcl-xL ELISA in MOLT-4 degradation 6 h: Mean external-Abs DC50
Protocol: The letter codes for BCL-XL DC50 include: A (<0.01 μM); B (0.01-0.1 μM); C (>[…]); D (>0.5-1.0 μM); and E (>1.0 μM). The letter codes for Dmax % include A (>75%); B (50 to 75%); C (<50%).

T1 sequence (Q07817 whole entry): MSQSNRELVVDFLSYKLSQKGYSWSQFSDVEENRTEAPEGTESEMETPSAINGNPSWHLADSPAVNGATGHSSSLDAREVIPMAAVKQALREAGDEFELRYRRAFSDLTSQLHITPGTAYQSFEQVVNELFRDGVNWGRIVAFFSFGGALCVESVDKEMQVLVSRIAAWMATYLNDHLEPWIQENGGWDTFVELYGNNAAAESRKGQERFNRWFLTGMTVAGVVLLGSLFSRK

| Dmax | DC50 | SMILES |
| --- | --- | --- |
| < 50% |  | Cc1ncsc1-c1ccc([C@H](C)NC(=O)[C@@H]2C[C@@H](O)CN2C(=O)[C@@H](NC(=O)N2CCC3(CCN(CC#Cc4ccc(OCCCc5sc(N6CCc7cccc(C(=O)Nc8nc9ccccc9s8)c7C6)nc5C(=O)O)c(F)c4)CC3)CC2)C(C)(C)C)cc1 [I-71] |
| < 50% |  | Cc1ncsc1-c1ccc([C@H](C)NC(=O)[C@@H]2C[C@@H](O)CN2C(=O)[C@@H](NC(=O)N2CCN(CC#Cc3ccc(OCCCc4sc(N5CCc6cccc(C(=O)Nc7nc8ccccc8s7)c6C5)nc4C(=O)O)c(F)c3)CC2)C(C)(C)C)cc1 [I-73] |
| 50 to 75% | 10 to 100 nM | Cc1ncsc1-c1ccc(CNC(=O)[C@@H]2C[C@@H](O)CN2C(=O)[C@@H](NC(=O)C2(F)CC2)C(C)(C)C)c(OCCCC(=O)N2CCN(CC#Cc3ccc(OCCCc4sc(N5CCc6cccc(C(=O)Nc7nc8ccccc8s7)c6C5)nc4C(=O)O)c(F)c3)CC2)c1 [I-223] |
| 50 to 75% | 10 to 100 nM | Cc1ncsc1-c1ccc([C@H](C)NC(=O)[C@@H]2C[C@@H](O)CN2C(=O)[C@H](c2cc(N3CC4(CN(c5ccc(S(=O)(=O)NC(=O)c6nc(N7CCc8cccc(C(=O)Nc9nc%10ccccc%10s9)c8C7)ccc6-c6cnn(CC7CCCCC7)c6C)cc5)C4)C3)no2)C(C)C)cc1 [I-225] |
| < 50% | > 1000 nM | Cc1ncsc1-c1ccc(CNC(=O)[C@@H]2C[C@@H](O)CN2C(=O)[C@@H](NC(=O)C2(F)CC2)C(C)(C)C)c(OC2CCN(CC3CCN(C(=O)c4nc(N5CCc6cccc(C(=O)Nc7nc8ccccc8s7)c6C5)ccc4-c4cnn(CC5CCCCC5)c4C)CC3)CC2)c1 [I-227] |
| 50 to 75% | 100 to 500 nM | C#Cc1ccc([C@H](CO)NC(=O)[C@@H]2C[C@@H](O)CN2C(=O)C(c2cc(OC3CCN(CCCS(=O)(=O)NC(=O)c4nc(N5CCc6cccc(C(=O)Nc7nc8ccccc8s7)c6C5)ccc4-c4cnn(CC5CCCCC5)c4C)CC3)no2)C(C)C)cc1 (some centres unmarked) [I-228] |
| < 50% |  | Cc1ncsc1-c1ccc([C@H](C)NC(=O)[C@@H]2C[C@@H](O)CN2C(=O)C(c2cc(OC3CCN(c4ccc(S(=O)(=O)NC(=O)c5nc(N6CCc7cccc(C(=O)Nc8nc9ccccc9s8)c7C6)ccc5-c5cnn(CC6CCCCC6)c5C)cc4)CC3)no2)C(C)C)cc1 (some centres unmarked) [I-231] |
| 50 to 75% | 100 to 500 nM | Cc1ncsc1-c1ccc([C@H](C)NC(=O)[C@@H]2C[C@@H](O)CN2C(=O)[C@@H](NC(=O)CCCCN(C)CCCS(=O)(=O)NC(=O)c2nc(N3CCc4cccc(C(=O)Nc5nc6ccccc6s5)c4C3)ccc2-c2cnn(CC3CCCCC3)c2C)C(C)(C)C)cc1 [I-232] |
| < 50% | > 1000 nM | Cc1ncsc1-c1ccc([C@H](C)NC(=O)[C@@H]2C[C@@H](O)CN2C(=O)C(c2cc(OC3CCN(CCCCNC(=O)c4nc(N5CCc6cccc(C(=O)Nc7nc8ccccc8s7)c6C5)ccc4-c4cnn(CC5CCCCC5)c4C)CC3)no2)C(C)C)cc1 (some centres unmarked) [I-233] |
| < 50% |  | Cc1ncsc1-c1ccc([C@H](C)NC(=O)[C@@H]2C[C@@H](O)CN2C(=O)[C@H](c2cc(N3CC(N4CCC(NC(=O)c5nc(N6CCc7cccc(C(=O)Nc8nc9ccccc9s8)c7C6)ccc5-c5cnn(CC6CCCCC6)c5C)CC4)C3)no2)C(C)C)cc1 [I-235] |
| < 50% |  | Cc1ncsc1-c1ccc([C@H](C)NC(=O)[C@@H]2C[C@@H](O)CN2C(=O)C(c2cc(N3CCC(CN4CCC(NC(=O)c5nc(N6CCc7cccc(C(=O)Nc8nc9ccccc9s8)c7C6)ccc5-c5cnn(CC6CCCCC6)c5C)CC4)CC3)no2)C(C)C)cc1 (some centres unmarked) [I-238] |
| < 50% |  | Cc1ncsc1-c1ccc([C@H](C)NC(=O)[C@@H]2C[C@@H](O)CN2C(=O)C(c2cc(N3CC(CN4CCC(NC(=O)c5nc(N6CCc7cccc(C(=O)Nc8nc9ccccc9s8)c7C6)ccc5-c5cnn(CC6CCCCC6)c5C)CC4)C3)no2)C(C)C)cc1 (some centres unmarked) [I-239] |
| > 75% | 10 to 100 nM | Cc1ncsc1-c1ccc([C@H](C)NC(=O)[C@@H]2C[C@@H](O)CN2C(=O)[C@@H](NC(=O)C2CCN(c3ccc(S(=O)(=O)NC(=O)c4nc(N5CCc6cccc(C(=O)Nc7nc8ccccc8s7)c6C5)ccc4-c4cnn(CC(C)C)c4C)cc3)CC2)C(C)(C)C)cc1 [I-240] |
| > 75% | 10 to 100 nM | Cc1cc(N(C)c2ccc(-c3cnn(CC4CCCCC4)c3C)c(C(=O)NS(=O)(=O)c3ccc(N4CCC(C(=O)N[C@H](C(=O)N5C[C@H](O)C[C@H]5C(=O)N[C@@H](C)c5ccc(-c6scnc6C)cc5)C(C)(C)C)CC4)cc3)n2)nnc1Nc1nc2ccccc2s1 [I-244] |
| > 75% | 10 to 100 nM | C#Cc1ccc([C@H](CO)NC(=O)[C@@H]2C[C@@H](O)CN2C(=O)[C@@H](NC(=O)C2CCN(c3ccc(S(=O)(=O)NC(=O)c4nc(N(C)c5cc(C)c(Nc6nc7ccccc7s6)nn5)ccc4-c4cnn(CC5(CC)CC6CC(C)CC(C6)C5)c4C)cc3)CC2)C(C)(C)C)cc1 (some centres unmarked) [I-245] |
| < 50% | > 1000 nM | Cc1ncsc1-c1ccc([C@H](C)NC(=O)[C@@H]2C[C@@H](O)CN2C(=O)[C@@H](NC(=O)N2CCC(N3CCN(C(=O)c4nc(N5CCc6cccc(C(=O)Nc7nc8ccccc8s7)c6C5)ccc4-c4cnn(CC5CCCCC5)c4C)CC3)CC2)C(C)(C)C)cc1 [I-247] |

| Dmax | DC50 | SMILES |
| --- | --- | --- |
| > 75% | 10 to 100 nM | Cc1ncsc1-c1ccc([C@H](C)NC(=O)[C@@H]2C[C@@H](O)CN2C(=O)[C@@H](NC(=O)C2CCN(c3ncc(S(=O)(=O)NC(=O)c4nc(N5CCc6cccc(C(=O)Nc7nc8ccccc8s7)c6C5)ccc4-c4cnn(CC5CCCCC5)c4C)cn3)CC2)C(C)(C)C)cc1 [I-250] |
| > 75% | 10 to 100 nM | Cc1ncsc1-c1ccc(CNC(=O)[C@@H]2C[C@@H](O)CN2C(=O)[C@@H](NC(=O)C2CCN(c3ccc(S(=O)(=O)NC(=O)c4nc(N5CCc6cccc(C(=O)Nc7nc8ccccc8s7)c6C5)ccc4-c4cnn(CC5CCCCC5)c4C)cc3)CC2)C(C)(C)C)cc1 [I-252] |
| > 75% | < 10 nM | C#Cc1ccc([C@H](C)NC(=O)[C@@H]2C[C@@H](O)CN2C(=O)[C@@H](NC(=O)C2CCN(c3ccc(S(=O)(=O)NC(=O)c4nc(N5CCc6cccc(C(=O)Nc7nc8ccccc8s7)c6C5)ccc4-c4cnn(CC5CCCCC5)c4C)cc3)CC2)C(C)(C)C)cc1 [I-253] |
| > 75% | < 10 nM | C#Cc1ccc(CNC(=O)[C@@H]2C[C@@H](O)CN2C(=O)[C@@H](NC(=O)C2CCN(c3ccc(S(=O)(=O)NC(=O)c4nc(N5CCc6cccc(C(=O)Nc7nc8ccccc8s7)c6C5)ccc4-c4cnn(CC5CCCCC5)c4C)cc3)CC2)C(C)(C)C)c(OC)c1 [I-254] |
| 50 to 75% | 100 to 500 nM | Cc1ncsc1-c1ccc([C@H](C)NC(=O)[C@@H]2C[C@@H](O)CN2C(=O)[C@@H](NC(=O)C2CCN(c3ccc(S(=O)(=O)NC(=O)c4nc(N5CCc6cccc(C(=O)Nc7nc8ccccc8s7)c6C5)ccc4-c4cnn(CC5(CCC(=O)O)CCCCC5)c4C)cc3)CC2)C(C)(C)C)cc1 [I-255] |
| 50 to 75% | 100 to 500 nM | Cc1ncsc1-c1ccc([C@H](C)NC(=O)[C@@H]2C[C@@H](O)CN2C(=O)[C@@H](NC(=O)C2CCN(c3ccc(S(=O)(=O)NC(=O)c4nc(N5CCc6cccc(C(=O)Nc7nc8ccccc8s7)c6C5)ccc4-c4cnn(CC5(CCCN6CCN(C)CC6)CCCCC5)c4C)cc3)CC2)C(C)(C)C)cc1 [I-256] |
| 50 to 75% | 100 to 500 nM | Cc1ncsc1-c1ccc([C@H](C)NC(=O)[C@@H]2C[C@@H](O)CN2C(=O)[C@@H](NC(=O)N2CCC(N3CCC(S(=O)(=O)NC(=O)c4nc(N5CCc6cccc(C(=O)Nc7nc8ccccc8s7)c6C5)ccc4-c4cnn(CC5CCCCC5)c4C)CC3)CC2)C(C)(C)C)cc1 [I-258] |
| > 75% | 10 to 100 nM | C#Cc1ccc(CNC(=O)[C@@H]2C[C@@H](O)CN2C(=O)[C@@H](NC(=O)C2CCN(c3ccc(S(=O)(=O)NC(=O)c4nc(N5CCc6cccc(C(=O)Nc7nc8ccccc8s7)c6C5)ccc4-c4cnn(CC5CCCCC5)c4C)cc3)CC2)C(C)(C)C)c(OCCO)c1 [I-259] |
| 50 to 75% | 100 to 500 nM | Cc1ncsc1-c1ccc([C@H](C)NC(=O)[C@@H]2C[C@@H](O)CN2C(=O)[C@@H](NC(=O)C2CCN(c3ccc(S(=O)(=O)NC(=O)c4nc(N5CCc6cccc(C(=O)Nc7nc8ccccc8s7)c6C5)ccc4-c4cnn(CC5CCOCC5)c4C)cc3)CC2)C(C)(C)C)cc1 [I-260] |
| > 75% | 10 to 100 nM | Cc1ncsc1-c1ccc([C@H](C)NC(=O)[C@@H]2C[C@@H](O)CN2C(=O)[C@@H](NC(=O)N2CCN(c3ccc(S(=O)(=O)NC(=O)c4nc(N5CCc6cccc(C(=O)Nc7nc8ccccc8s7)c6C5)ccc4-c4cnn(CC5CCCCC5)c4C)cc3)CC2)C(C)(C)C)cc1 [I-261] |
| > 75% | < 10 nM | C#Cc1ccc(CNC(=O)[C@@H]2C[C@@H](O)CN2C(=O)[C@@H](c2cc(N3CCN(c4ccc(S(=O)(=O)NC(=O)c5nc(N6CCc7cccc(C(=O)Nc8nc9ccccc9s8)c7C6)ccc5-c5cnn(CC6CCCCC6)c5C)cc4)CC3)no2)C(C)C)cc1 [I-262] |
| 50 to 75% | 10 to 100 nM | C#Cc1ccc(CNC(=O)[C@@H]2C[C@@H](O)CN2C(=O)[C@@H](c2cc(N3CCN(c4ccc(S(=O)(=O)NC(=O)c5nc(N6CCc7cccc(C(=O)Nc8nc9ccccc9s8)c7C6)ccc5-c5cnn(CC6CCCCC6)c5C)cc4)CC3)no2)C(C)C)c(OC)c1 [I-263] |
| 50 to 75% | 10 to 100 nM | Cc1cc([C@@H](C(=O)N2C[C@H](O)C[C@H]2C(=O)NCc2ccc(-c3scnc3C)cc2OCCCCCCN(C)C(=O)c2nc(N3CCc4cccc(C(=O)Nc5nc6ccccc6s5)c4C3)ccc2-c2cnn(CC3CCCCC3)c2C)C(C)C)on1 [I-264] |
| 50 to 75% | 100 to 500 nM | Cc1cc([C@@H](C(=O)N2C[C@H](O)C[C@H]2C(=O)NCc2ccc(-c3scnc3C)cc2OCCN(C)C2CCN(C(=O)c3nc(N4CCc5cccc(C(=O)Nc6nc7ccccc7s6)c5C4)ccc3-c3cnn(CC4CCCCC4)c3C)CC2)C(C)C)on1 [I-266] |
| < 50% | > 1000 nM | Cc1cc([C@@H](C(=O)N2C[C@H](O)C[C@H]2C(=O)NCc2ccc(-c3scnc3C)cc2OCCN2CCN(C(=O)c3nc(N4CCc5cccc(C(=O)Nc6nc7ccccc7s6)c5C4)ccc3-c3cnn(CC4CCCCC4)c3C)CC2)C(C)C)on1 [I-267] |
